Measured values from ChEMBL document CHEMBL1157928, “Discovery and structural optimization of pyrazole derivatives as novel inhibitors of Cdc25B” (Bioorg Med Chem Lett, 2010).

Legend:
[1] = biological target: Receptor-type tyrosine-protein phosphatase F (Homo sapiens, UniProt P10586); assay: Inhibition of PTP-LAR
[2] = biological target: T1, Tyrosine-protein phosphatase non-receptor type 1 (Homo sapiens, UniProt P18031); assay: Inhibition of PTP1B
T1 sequence (P18031 whole entry): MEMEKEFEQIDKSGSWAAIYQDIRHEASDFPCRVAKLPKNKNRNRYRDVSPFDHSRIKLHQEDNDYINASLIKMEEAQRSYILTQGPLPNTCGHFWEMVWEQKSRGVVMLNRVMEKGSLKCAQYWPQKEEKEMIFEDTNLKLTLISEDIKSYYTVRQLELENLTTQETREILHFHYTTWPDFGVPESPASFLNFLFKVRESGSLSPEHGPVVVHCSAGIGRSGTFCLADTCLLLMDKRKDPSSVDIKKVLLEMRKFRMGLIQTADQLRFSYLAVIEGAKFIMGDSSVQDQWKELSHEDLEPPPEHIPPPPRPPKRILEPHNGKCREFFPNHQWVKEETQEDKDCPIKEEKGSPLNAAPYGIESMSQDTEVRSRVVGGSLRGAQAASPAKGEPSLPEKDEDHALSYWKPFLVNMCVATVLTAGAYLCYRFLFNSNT

[3] = biological target: Tyrosine-protein phosphatase non-receptor type 6 (Homo sapiens, UniProt P29350); assay: Inhibition of SHP1
[4] = biological target: T2, M-phase inducer phosphatase 2 (Homo sapiens, UniProt P30305); assay: Inhibition of CDC25B
T2 sequence (P30305 whole entry): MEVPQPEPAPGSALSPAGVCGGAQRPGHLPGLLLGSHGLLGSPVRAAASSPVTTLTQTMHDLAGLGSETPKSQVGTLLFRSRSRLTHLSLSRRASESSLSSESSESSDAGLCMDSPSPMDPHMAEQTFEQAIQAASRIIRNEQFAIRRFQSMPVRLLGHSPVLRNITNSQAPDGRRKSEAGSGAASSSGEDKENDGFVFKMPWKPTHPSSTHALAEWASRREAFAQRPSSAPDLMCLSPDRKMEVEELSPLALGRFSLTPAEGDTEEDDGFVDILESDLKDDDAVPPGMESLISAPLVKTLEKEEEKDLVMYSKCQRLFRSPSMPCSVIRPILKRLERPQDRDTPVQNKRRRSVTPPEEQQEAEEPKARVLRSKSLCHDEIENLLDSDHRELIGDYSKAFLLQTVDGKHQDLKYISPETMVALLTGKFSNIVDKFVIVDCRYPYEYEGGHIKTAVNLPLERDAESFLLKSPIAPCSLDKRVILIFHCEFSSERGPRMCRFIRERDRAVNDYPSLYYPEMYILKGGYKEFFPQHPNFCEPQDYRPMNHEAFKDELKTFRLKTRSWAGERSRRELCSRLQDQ

[5] = biological target: T3, Tyrosine-protein phosphatase non-receptor type 11 (Homo sapiens, UniProt Q06124); assay: Inhibition of SHP2
T3 sequence (Q06124 whole entry): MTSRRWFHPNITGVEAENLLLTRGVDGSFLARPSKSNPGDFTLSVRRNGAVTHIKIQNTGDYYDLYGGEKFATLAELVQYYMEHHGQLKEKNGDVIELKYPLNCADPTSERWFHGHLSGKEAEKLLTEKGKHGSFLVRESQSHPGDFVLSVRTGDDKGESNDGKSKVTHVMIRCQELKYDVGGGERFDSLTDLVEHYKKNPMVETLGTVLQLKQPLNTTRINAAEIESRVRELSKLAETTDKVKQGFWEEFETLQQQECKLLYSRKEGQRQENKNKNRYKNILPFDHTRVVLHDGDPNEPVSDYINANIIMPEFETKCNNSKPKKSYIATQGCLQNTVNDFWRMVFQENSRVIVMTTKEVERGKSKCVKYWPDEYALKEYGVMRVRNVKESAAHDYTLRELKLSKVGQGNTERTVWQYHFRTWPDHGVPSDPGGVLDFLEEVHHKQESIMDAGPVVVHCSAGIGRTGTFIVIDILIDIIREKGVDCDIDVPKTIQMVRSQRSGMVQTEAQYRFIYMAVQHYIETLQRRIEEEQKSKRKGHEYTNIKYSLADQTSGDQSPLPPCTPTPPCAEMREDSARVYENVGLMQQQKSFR

[6] = biological target: T4, Tyrosine-protein phosphatase non-receptor type 2 (Homo sapiens, UniProt P17706); assay: Inhibition of TCPTP
T4 sequence (P17706 whole entry): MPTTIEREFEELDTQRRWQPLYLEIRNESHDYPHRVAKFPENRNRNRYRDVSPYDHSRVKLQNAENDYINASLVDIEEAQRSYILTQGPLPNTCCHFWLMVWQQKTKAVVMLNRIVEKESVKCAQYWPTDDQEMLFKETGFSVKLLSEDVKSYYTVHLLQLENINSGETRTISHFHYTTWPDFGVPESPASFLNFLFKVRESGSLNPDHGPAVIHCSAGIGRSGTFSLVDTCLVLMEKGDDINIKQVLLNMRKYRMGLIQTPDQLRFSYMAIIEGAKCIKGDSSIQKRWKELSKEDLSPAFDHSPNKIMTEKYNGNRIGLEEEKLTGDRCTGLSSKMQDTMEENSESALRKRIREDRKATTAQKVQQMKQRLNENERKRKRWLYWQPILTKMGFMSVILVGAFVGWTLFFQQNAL

Chain of Receptor-type tyrosine-protein phosphatase F (P10586 whole entry): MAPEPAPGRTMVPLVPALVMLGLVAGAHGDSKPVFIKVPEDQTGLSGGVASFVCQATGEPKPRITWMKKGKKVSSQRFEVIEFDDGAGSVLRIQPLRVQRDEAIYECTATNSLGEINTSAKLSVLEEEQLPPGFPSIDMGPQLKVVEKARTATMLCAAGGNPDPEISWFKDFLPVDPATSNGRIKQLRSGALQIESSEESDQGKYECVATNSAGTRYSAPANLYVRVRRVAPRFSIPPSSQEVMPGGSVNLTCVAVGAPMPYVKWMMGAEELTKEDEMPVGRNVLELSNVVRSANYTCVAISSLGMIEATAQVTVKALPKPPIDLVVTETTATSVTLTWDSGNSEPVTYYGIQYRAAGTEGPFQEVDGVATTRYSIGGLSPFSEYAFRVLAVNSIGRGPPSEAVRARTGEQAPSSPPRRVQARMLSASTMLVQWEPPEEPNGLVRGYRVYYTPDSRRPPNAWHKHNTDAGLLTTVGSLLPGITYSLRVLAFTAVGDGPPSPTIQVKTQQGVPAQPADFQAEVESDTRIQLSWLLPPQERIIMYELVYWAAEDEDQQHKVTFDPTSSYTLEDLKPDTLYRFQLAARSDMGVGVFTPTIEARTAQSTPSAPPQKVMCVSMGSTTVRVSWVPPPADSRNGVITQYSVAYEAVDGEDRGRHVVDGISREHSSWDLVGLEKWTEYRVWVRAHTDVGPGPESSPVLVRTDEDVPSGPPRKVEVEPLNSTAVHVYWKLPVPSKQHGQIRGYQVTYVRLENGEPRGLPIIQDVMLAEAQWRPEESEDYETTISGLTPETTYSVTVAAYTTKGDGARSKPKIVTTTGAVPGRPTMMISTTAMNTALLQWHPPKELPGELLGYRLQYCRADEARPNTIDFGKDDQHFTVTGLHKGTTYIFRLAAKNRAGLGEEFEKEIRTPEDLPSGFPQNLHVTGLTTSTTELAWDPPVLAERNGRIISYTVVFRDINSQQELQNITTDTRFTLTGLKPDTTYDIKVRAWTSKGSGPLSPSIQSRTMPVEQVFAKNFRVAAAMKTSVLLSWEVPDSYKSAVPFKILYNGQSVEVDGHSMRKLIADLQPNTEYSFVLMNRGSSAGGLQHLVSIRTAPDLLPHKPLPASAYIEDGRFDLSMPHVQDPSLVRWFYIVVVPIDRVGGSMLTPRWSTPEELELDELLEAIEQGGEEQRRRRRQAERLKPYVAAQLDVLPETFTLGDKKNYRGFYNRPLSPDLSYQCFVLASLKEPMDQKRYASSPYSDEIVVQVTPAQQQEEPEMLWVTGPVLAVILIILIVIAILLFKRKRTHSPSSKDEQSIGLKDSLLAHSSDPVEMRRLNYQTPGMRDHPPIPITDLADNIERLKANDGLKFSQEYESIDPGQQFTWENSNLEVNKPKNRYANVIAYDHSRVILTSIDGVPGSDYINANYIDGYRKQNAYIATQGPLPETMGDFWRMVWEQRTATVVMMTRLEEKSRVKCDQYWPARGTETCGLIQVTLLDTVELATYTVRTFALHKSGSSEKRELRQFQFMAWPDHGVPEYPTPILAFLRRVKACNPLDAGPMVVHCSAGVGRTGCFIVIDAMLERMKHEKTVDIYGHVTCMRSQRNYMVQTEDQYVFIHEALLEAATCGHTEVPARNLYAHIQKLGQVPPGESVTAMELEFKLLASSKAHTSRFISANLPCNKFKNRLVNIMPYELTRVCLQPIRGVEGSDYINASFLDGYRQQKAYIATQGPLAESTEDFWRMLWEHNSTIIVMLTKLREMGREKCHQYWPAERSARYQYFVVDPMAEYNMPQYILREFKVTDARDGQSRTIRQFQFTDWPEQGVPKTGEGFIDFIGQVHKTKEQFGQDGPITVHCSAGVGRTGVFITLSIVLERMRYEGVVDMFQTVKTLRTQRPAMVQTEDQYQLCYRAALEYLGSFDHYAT
Chain of Tyrosine-protein phosphatase non-receptor type 6 (P29350 whole entry): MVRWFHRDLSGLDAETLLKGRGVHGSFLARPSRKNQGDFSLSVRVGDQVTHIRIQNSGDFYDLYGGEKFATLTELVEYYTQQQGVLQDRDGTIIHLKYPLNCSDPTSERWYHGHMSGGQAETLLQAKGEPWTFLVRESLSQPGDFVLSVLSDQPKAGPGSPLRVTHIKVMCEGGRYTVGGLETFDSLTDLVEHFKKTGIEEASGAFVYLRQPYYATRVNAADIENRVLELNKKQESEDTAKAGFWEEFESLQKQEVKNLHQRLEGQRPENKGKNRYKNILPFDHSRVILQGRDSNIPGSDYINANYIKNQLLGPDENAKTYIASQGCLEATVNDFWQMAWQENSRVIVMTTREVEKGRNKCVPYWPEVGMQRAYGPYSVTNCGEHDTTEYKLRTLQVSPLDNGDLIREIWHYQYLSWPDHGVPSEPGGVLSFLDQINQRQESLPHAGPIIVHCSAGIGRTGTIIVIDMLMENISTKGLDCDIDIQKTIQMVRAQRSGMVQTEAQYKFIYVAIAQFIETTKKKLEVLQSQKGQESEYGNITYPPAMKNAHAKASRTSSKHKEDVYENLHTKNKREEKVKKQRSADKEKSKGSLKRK

CCCCCCCCCCCCCCCCCC(=O)c1n[nH]c2c1C(=O)N(c1ccccc1)C2=O
IC50 [1]: Not Active
IC50 ([2]; read-out: IC50): 1.56 µM
IC50 [3]: Not Active
IC50 ([4]; read-out: IC50): 0.23 µM
IC50 ([5]; read-out: IC50): 9.59 µM
IC50 ([6]; read-out: IC50): 3.31 µM

CCCCCCCCCCCCCCCCCC(=O)c1cc(C(=O)Nc2ccccc2C(=O)O)[nH]n1
IC50 [1]: Not Active
IC50 ([2]; read-out: IC50): 0.35 µM
IC50 ([3]; read-out: IC50): 10.6 µM
IC50 ([4]; read-out: IC50): 0.16 µM
IC50 ([5]; read-out: IC50): 15.2 µM
IC50 ([6]; read-out: IC50): 1.3 µM

CCCCCCCCCCCCCCCCCC(=O)c1n[nH]c2c1C(=O)N(Cc1ccccc1)C2=O
IC50 ([4]; read-out: IC50): 0.73 µM

CCCCCCCCCCCCCCCCCC(=O)c1n[nH]c2c1C(=O)N(c1ccccc1Br)C2=O
IC50 ([4]; read-out: IC50): 0.25 µM

CCCCCCCCCCCCCCCCCC(=O)c1n[nH]c2c1C(=O)N(Cc1ccc(F)cc1)C2=O
IC50 ([4]; read-out: IC50): 2.08 µM

CCCCCCCCCCCCCCCCCC(=O)c1n[nH]c2c1C(=O)N(c1ccccc1F)C2=O
IC50 ([4]; read-out: IC50): 0.45 µM

CCCCCCCCCCCCCCCCCC(=O)c1n[nH]c2c1C(=O)N(c1ccccc1C(=O)OC)C2=O
IC50 ([4]; read-out: IC50): 0.41 µM

CCCCCCCCCCCCCCCCCC(=O)c1n[nH]c2c1C(=O)N(c1ccc([N+](=O)[O-])cc1)C2=O
IC50 ([4]; read-out: IC50): 0.4 µM

CCCCCCCCCCCCCCCCCC(=O)c1n[nH]c2c1C(=O)N(c1cccc([N+](=O)[O-])c1)C2=O
IC50 ([4]; read-out: IC50): 1.11 µM

CCOC(=O)c1n[nH]c2c1C(=O)N(c1ccccc1F)C2=O
IC50 [4]: Not Active

CCCCCCCCCCCCCCCCCC(=O)c1n[nH]c2c1C(=O)N(c1ccccc1C)C2=O
IC50 ([4]; read-out: IC50): 2.13 µM

CCOC(=O)c1n[nH]c2c1C(=O)N(c1cccc(Br)c1)C2=O
IC50 [4]: Not Active

CCOC(=O)c1n[nH]c2c1C(=O)N(c1cccc(Cl)c1)C2=O
IC50 [4]: Not Active

CCCCCCCCCCCCCCCCCC(=O)c1n[nH]c2c1C(=O)N(c1ccc(OC)cc1)C2=O
IC50 ([4]; read-out: IC50): 0.54 µM

CCOC(=O)c1n[nH]c2c1C(=O)N(c1ccc([N+](=O)[O-])cc1)C2=O
IC50 [1]: Not Active
IC50 [2]: Not Active
IC50 [3]: Not Active
IC50 ([4]; read-out: IC50): 31.9 µM
IC50 [5]: Not Active
IC50 [6]: Not Active

CCOC(=O)c1n[nH]c2c1C(=O)N(c1ccc(OC)cc1)C2=O
IC50 [4]: Not Active

CCCCCCCCCCCCCCCCCC(=O)c1n[nH]c2c1C(=O)N(c1cccc(Cl)c1)C2=O
IC50 ([4]; read-out: IC50): 0.24 µM

CCCCCCCCCCCCCCCCCC(=O)c1cc(C(=O)Nc2ccccc2C(=O)OC)[nH]n1
IC50 [1]: Not Active
IC50 ([2]; read-out: IC50): 7.49 µM
IC50 [3]: Not Active
IC50 ([4]; read-out: IC50): 5.08 µM
IC50 [5]: Not Active
IC50 ([6]; read-out: IC50): 18.7 µM

CCCCCCCCCCCCCCCCCC(=O)c1cc(C(=O)Nc2ccsc2C(=O)O)[nH]n1
IC50 [1]: Not Active
IC50 ([2]; read-out: IC50): 0.41 µM
IC50 ([3]; read-out: IC50): 9.79 µM
IC50 ([4]; read-out: IC50): 0.12 µM
IC50 ([5]; read-out: IC50): 12.2 µM
IC50 ([6]; read-out: IC50): 1.16 µM

CCCCCCCCCCCCCCCCCC(=O)c1n[nH]c2c1C(=O)N(C1CCCCC1)C2=O
IC50 ([4]; read-out: IC50): 2.92 µM

O=C(c1ccccc1)c1n[nH]c2c1C(=O)N(c1ccc([N+](=O)[O-])cc1)C2=O
IC50 [4]: Not Active

CCOC(=O)c1n[nH]c2c1C(=O)N(c1cccc([N+](=O)[O-])c1)C2=O
IC50 [4]: Not Active

CCCCCCCCCCCCCCCCCC(=O)c1n[nH]c2c1C(=O)N(c1ccc(Br)cc1)C2=O
IC50 ([4]; read-out: IC50): 0.96 µM

CCCCCCCCCCCCCCCCCC(=O)c1n[nH]c2c1C(=O)N(c1ccc(Cl)cc1)C2=O
IC50 ([4]; read-out: IC50): 0.17 µM

CCCCCCCCCCCCCCCCCC(=O)c1n[nH]c2c1C(=O)N(c1cccc3ccccc13)C2=O
IC50 ([4]; read-out: IC50): 0.31 µM

CCCCCCCCCCCCCCCCCC(=O)c1n[nH]c2c1C(=O)N(c1ccccc1C(F)(F)F)C2=O
IC50 ([4]; read-out: IC50): 0.32 µM

CCCCCCCCCCCCCCCCCC(=O)c1n[nH]c2c1C(=O)N(c1ccc(C(=O)OC)cc1)C2=O
IC50 ([4]; read-out: IC50): 0.49 µM

CCOC(=O)c1n[nH]c2c1C(=O)N(c1ccc(Cl)cc1)C2=O
IC50 ([4]; read-out: IC50): 37.4 µM

CCCCCCCCCCCCCCCCCC(=O)c1n[nH]c2c1C(=O)N(c1cccc(C)c1)C2=O
IC50 ([4]; read-out: IC50): 2.6 µM

CCOC(=O)c1n[nH]c2c1C(=O)N(c1ccc(F)cc1)C2=O
IC50 [4]: Not Active

CCCCCCCCCCCCCCCCCC(=O)c1n[nH]c2c1C(=O)N(c1cccc(F)c1)C2=O
IC50 ([4]; read-out: IC50): 1.47 µM

CCOC(=O)c1n[nH]c2c1C(=O)N(c1cccc(F)c1)C2=O
IC50 [4]: Not Active

CCCCCCCCCCCCCCCCCC(=O)c1n[nH]c2c1C(=O)N(c1ccc(F)cc1)C2=O
IC50 ([4]; read-out: IC50): 0.54 µM

CCCCCCCCCCCCCCCCCC(=O)c1n[nH]c2c1C(=O)N(c1cccc(OC)c1)C2=O
IC50 ([4]; read-out: IC50): 0.52 µM

CCOC(=O)c1n[nH]c2c1C(=O)N(c1ccccc1Cl)C2=O
IC50 [4]: Not Active

CCCCCCCCCCCCCCCCCC(=O)c1n[nH]c2c1C(=O)N(c1ccsc1C(=O)OC)C2=O
IC50 ([4]; read-out: IC50): 0.34 µM

CCCCCCCCCCCCCC(=O)c1n[nH]c2c1C(=O)N(c1ccc([N+](=O)[O-])cc1)C2=O
IC50 ([4]; read-out: IC50): 0.5 µM

CCOC(=O)c1n[nH]c2c1C(=O)N(c1ccccc1C(=O)OC)C2=O
IC50 [4]: Not Active

CCCCCCCCCCCCCCCCCC(=O)c1cc(C(=O)Nc2ccsc2C(=O)OC)[nH]n1
IC50 [1]: Not Active
IC50 ([2]; read-out: IC50): 7.16 µM
IC50 [3]: Not Active
IC50 ([4]; read-out: IC50): 3.36 µM
IC50 [5]: Not Active
IC50 ([6]; read-out: IC50): 18.6 µM

CCCCCCCCCC(=O)c1n[nH]c2c1C(=O)N(c1ccc([N+](=O)[O-])cc1)C2=O
IC50 ([4]; read-out: IC50): 1.39 µM

CCCCCCCCCCCCCCCCCC(=O)c1n[nH]c2c1C(=O)N(c1cccc(Br)c1)C2=O
IC50 ([4]; read-out: IC50): 1.01 µM

CCCCCCCCCCCCCCCCCC(=O)c1n[nH]c2c1C(=O)N(c1ccc(C)cc1)C2=O
IC50 ([4]; read-out: IC50): 4.33 µM

CCCCCCCCCCCCCCCCCC(=O)c1n[nH]c2c1C(=O)N(c1ccc(F)c(Cl)c1)C2=O
IC50 ([4]; read-out: IC50): 1.15 µM

CCCCCCCCCCCCCCCCCC(=O)c1nn(C)c2c1C(=O)N(c1ccccc1)C2=O
IC50 ([4]; read-out: IC50): 30 µM

CCOC(=O)c1n[nH]c2c1C(=O)N(c1ccccc1OC)C2=O
IC50 [4]: Not Active

CCOC(=O)c1n[nH]c2c1C(=O)N(c1ccccc1Br)C2=O
IC50 [4]: Not Active
